Literature values as cited in patent US20130209380A1, “MOISTURIZING COMPOSITION WITH SPF 30” (GALDERMA S.A., priority 2010, published 2013).

Tested on: stratum corneum
Conditions: In vitro human skin model

## CCCCCCCCCCCCCCC[C@@H](O)[C@H](CO)NC(=O)C(O)CCCCCCCCCCCCCC (some centres unmarked) [pseudo ceramide 5, N-(2-hydroxyhexadecanoyl)sphinganine]
  affinity and diffusion into the stratum corneum: good
  effect on synthesis of ceramides 1-2-3: induction synthesis of ceramides 1-2-3
